The source of these data is patent US20260022143A1, “Cyclic Peptide Inhibitors of IL-23” (JANSSEN PHARMACEUTICA NV, priority 2022, published 2026).

Starred links: 1 amine or outer side, 2 acyl side, 3 side chain; linkers in the order of their positions; H or OH if unused. Positions of bridges follow the written chain, without caps; N, C: chain ends. Non-standard residues stand in square brackets, D forms with d. Residues, ends and D or L forms follow the SMILES beside them. Groups on a side chain read outwards from the residue. *: point of attachment. Me3N+(CH2)2O(CH2)2O(CH2)2CO = C[N+](C)(C)CCOCCOCCC(=O)*; CH2CH2OCH2CH2OCH2CH2NMe3+ = C[N+](C)(C)CCOCCOCC*; Trp(7-Me) = Cc1cccc2c(C[C@H](N)C(=O)O)c[nH]c12; X9 = COCCOCCOCC[N+](C)(C)CCc1cn(CC*)nn1; γGlu = O=C(O)[C@H](CCC(=O)[*:2])N[*:1]; 2Nal = N[C@@H](Cc1ccc2ccccc2c1)C(=O)O; 3Pal = N[C@@H](Cc1cccnc1)C(=O)O; Myristoyl = CCCCCCCCCCCCCC(=O)*; Lys(Me) = CNCCCC[C@H](N)C(=O)O; Pen = CC(C)(S)[C@H](N)C(=O)O; Thp = NC1(C(=O)O)CCOCC1; X3 = C[N+](C)(C)CCCCC*; AEEA = NCCOCCOCC(=O)O; Sar = CNCC(=O)O

A short description of the series: Exposed Polar Surface Area (EPSA). As to conditions: SFC on Chirex 3014 column; sample 1 mM DMSO stock; read-out: EPSA. In kind it is physicochemical. An excerpt:
Exposed Polar Surface Area (EPSA) is an experimental descriptor of molecular polarity obtained from chromatographic retention in supercritical fluid chromatography (SFC).
The stationary phase (Chirex 3014(S)-valine and (R)-1-(alpha-naphthyl) ethylamine) was selected for its balance of lipophilic and polar attributes and its capacity to separate compounds with wide polarity differences. The mobile phase consists of methanol (+Ammonium formate) and CO2. Polar compounds are retained stronger under these conditions and a low-slope gradient of methanol achieves elution based on increasing polarity of the mobile phase. Results are normalized using calibration standards generating a linear relationship between retention times and EPSA values. The unit of EPSA is Å^2.
Along with the measurement of compounds of interest, a series of 8 calibration standards (see Materials) are analyzed generating a linear relationship between retention times and EPSA value. The 8 compounds used as calibration standard have their own EPSA value defined by G. Goetz based on the comparison with TPSA (see G. Goetz, L. Philippe and M. Shapiro, “EPSA: A novel supercritical fluid chromatography technique enabling the design of permeable cyclic peptides,” ACS Med. Chem. Lett., vol. 5, pp. 1167-1172, 2014 for more information). The slope from the linear relationship between EPSA values of these eight compounds and their retention times is used to determine the EPSA value of each compound of interest that's measured under the same condition using the equation as below: […]
The mixture of calibrations standard is reinjected every 20 compounds to validate the stability of the retention time.
The mobile phase modifier consists of ammonium formate LC_MS grade (>99%) (CAS number 540-69-2) diluted to 20 mM in HPLC grade Methanol (MeOH, CAS number 67-56-1) and liquid C02 SFC grade (CAS number 124-38-9).
Antipyrine (CAS number: 60-80-0) Chlorpromazine hydrochloride (CAS number: 69-09-0), desipramine hydrochloride (CAS number: […]), pindolol (CAS Number: 13523-86-9), diclofenac (CAS number: 15307-79-6)), m-nitro benzoic acid (CAS number: 121-92-6), bumetanide (CAS number: 28395-03-1), furosemide (CAS number: 54-31-9) were purchased from Sigma Aldrich (Steihneim, Germany).
All analyses were performed on a ultra performance convergence chromatography (UPC™) apparatus (Waters, Milford, MA, USA) equipped with a sample manager, a binary solvent delivery pump (BSM), a column manager, a convergence manager (automated back pressure regulator), a photo diode array detector (DAD) with a high pressure flow cell, and a mass detector simple quadrupole QDa. After the UV detector, the effluent of the SFC was mixed with an eluent consist of mixture MeOH/water (+0.3% Ammonia) 95/5 delivered by a make up pump with a flow rate of 0.4 mL/min and then split to the QDa using a splitter. The instrument was controlled, and data were processed with Masslynx 4.1.
The Analyses were performed using a 4.6×50 mm Chirex 3014(S)-valine and (R)-1-(alpha- naphthyl) ethylamine column (Phenomenex, Le Pecq, France) with 5 um particle and 100A pore size. The flow rate was 4 mL/min with the outlet pressure set to 14 MPa. The injection volume was 2 μL. the mobile phase composition was varied from 5% to 60% modifier at 20%/ min in a linear gradient, holding at 60% for 1.45 min and reverting to the original 5% until the end of the run. Data are acquired during 5 min. An equilibration time of 1 min is applied between 2 injections resulting in an injection every 6 min. each sample is analyzed in duplicate, resulting in a sample to sample turnaround time of 12 min.
The column temperature was set to 35° C. The mass detector was used in full scan from 100 to 800 for small molecules and from 500 to 1200 for peptides.
Each sample is delivered by compound logistics from DMSO stock solution without dilution. The concentration is 1 mM and the volume is 60 μL.
In the case of `CC(=O)NCCCC[C@@H]1NC(=O)[C@H](Cc2c[nH]c3c(C)cccc23)NC(=O)[C@H]([C@@H](C)O)NC(=O)[C@H](CC(=O)N(C)C)NC(=O)[C@@H](NC(=O)CCOCCOCC[N+](C)(C)C)C(C)(C)SSC(C)(C)[C@@H](C(=O)N[C@@H](Cc2ccc(OCCOCCOCC[N+](C)(C)C)cc2)C(=O)N[C@@H](Cc2ccc3ccccc3c2)C(=O)NC2(C(=O)N[C@@H](CCCCN(C)C(C)=O)C(=O)N[C@@H](CC(N)=O)C(=O)N[C@@H](Cc3cccnc3)C(=O)N(C)CC(=O)N(C)C)CCOCC2)NC1=O` [compound 243, cPEG3aCO-Pen(3)-N(N(Me)2)-T-7MeW-K(Ac)-Pen(3)-APEG3F-2Nal-THP-K(NMeAc)-N-3Pya-Sar-CON(Me)2] ({Me3N+(CH2)2O(CH2)2O(CH2)2CO}-[Pen]D(NMe2)T[Trp(7-Me)]K(Ac)[Pen]Y(CH2CH2OCH2CH2OCH2CH2NMe3+)[2Nal][Thp][Lys(Me)](Ac)N[3Pal][Sar]-NMe2; disulfide 1-6), the EPSA is 142 A^2.

Turning to `CCCCCCCCCCCCCC(=O)N[C@@H](CCC(=O)NCCOCCOCC(=O)NCCOCCOCC(=O)NCCCC[C@@H]1NC(=O)[C@H](Cc2c[nH]c3c(C)cccc23)NC(=O)[C@H]([C@@H](C)O)NC(=O)[C@H](CC(=O)N(C)C)NC(=O)[C@@H](NC(=O)CCOCCOCC[N+](C)(C)C)C(C)(C)SSC(C)(C)[C@@H](C(=O)N[C@@H](Cc2ccc(OCCCCC[N+](C)(C)C)cc2)C(=O)N[C@@H](Cc2ccc3ccccc3c2)C(=O)NC2(C(=O)N[C@@H](CCCCN(C)C(C)=O)C(=O)N[C@@H](CC(N)=O)C(=O)N[C@@H](Cc3cccnc3)C(=O)N(C)CC(=O)N(C)C)CCOCC2)NC1=O)C(=O)O` [compound 399, cPEG3aCO-Pen(3)-N(N(Me)2)-T-7MeW-K(PEG2PEG2gEC14)-Pen(3)-TMAPF-2Nal-THP-K(NMeAc)-N-3Pya-Sar-CON(Me)2] ({Me3N+(CH2)2O(CH2)2O(CH2)2CO}-[Pen]D(NMe2)T[Trp(7-Me)]K([AEEA-AEEA-γGlu-Myristoyl])[Pen]Y(X3)[2Nal][Thp][Lys(Me)](Ac)N[3Pal][Sar]-NMe2; disulfide 1-6), the EPSA was 157 A^2.

As for `CCCCCCCCCCCCCC(=O)N[C@@H](CCC(=O)NCCOCCOCC(=O)NCCOCCOCC(=O)NCCCC[C@H](NC(=O)C1(NC(=O)[C@H](Cc2ccc3ccccc3c2)NC(=O)[C@H](Cc2ccc(OCCCCC[N+](C)(C)C)cc2)NC(=O)[C@H]2NC(=O)[C@H](CCCCN(C)C(C)=O)NC(=O)[C@H](Cc3c[nH]c4c(C)cccc34)NC(=O)[C@H]([C@@H](C)O)NC(=O)[C@H](CC(=O)N(C)C)NC(=O)[C@@H](NC(=O)CCOCCOCC[N+](C)(C)C)C(C)(C)SSC2(C)C)CCOCC1)C(=O)N[C@@H](CC(N)=O)C(=O)N[C@@H](Cc1cccnc1)C(=O)N(C)CC(=O)N(C)C)C(=O)O` [compound 402, cPEG3aCO-Pen(3)-N(N(Me)2)-T-7MeW-K(NMeAc)-Pen(3)-TMAPF-2Nal-THP-K(PEG2PEG2gEC14)-N-3Pya-Sar-CON(Me)2] ({Me3N+(CH2)2O(CH2)2O(CH2)2CO}-[Pen]D(NMe2)T[Trp(7-Me)][Lys(Me)](Ac)[Pen]Y(X3)[2Nal][Thp]K([AEEA-AEEA-γGlu-Myristoyl])N[3Pal][Sar]-NMe2; disulfide 1-6), the EPSA was found to be 156 A^2.

As for `COCCOCCOCC[N+](C)(C)CCc1cn(CCOc2ccc(C[C@H](NC(=O)[C@H]3NC(=O)[C@H](CCCCNC(C)=O)NC(=O)[C@H](Cc4c[nH]c5c(C)cccc45)NC(=O)[C@H]([C@@H](C)O)NC(=O)[C@H](CC(N)=O)NC(=O)[C@@H](NC(C)=O)C(C)(C)SSC3(C)C)C(=O)N[C@@H](Cc3ccc4ccccc4c3)C(=O)NC3(C(=O)N[C@@H](CCCCNC(C)=O)C(=O)N[C@@H](CC(N)=O)C(=O)N[C@@H](Cc4cccnc4)C(=O)N(C)CC(N)=O)CCOCC3)cc2)nn1` [compound 260] (Ac-[Pen]NT[Trp(7-Me)]K(Ac)[Pen]Y(X9)[2Nal][Thp]K(Ac)N[3Pal][Sar]-NH2; disulfide 1-6), the EPSA worked out at 147 A^2.
